What was measured:
[1] = target: T1, h-GABA-A α5β3γ2 (Homo sapiens (Human), UniProt P18507+P31644); test: [3H]flumazenil competition binding assay, membranes of HEK293 cells expressing human GABAA receptors; settings: displacement of [3H]flumazenil 0.5 nM, HEK293 cells expressing human receptors, mean of two determinations; read-out: Ki h-GABA-A α5β3γ2
Experimental: The affinity of compounds at GABAA receptor subtypes was measured by competition for [3H]flumazenil (85 Ci/mmol; Roche) binding to HEK293 cells expressing rat (stably transfected) or human (transiently transfected) receptors of composition α1β3γ2, α2β3γ2, α3β3γ2 and α5β3γ2.
Cell pellets were suspended in Krebs-tris buffer (4.8 mM KCl, 1.2 mM CaCl2, 1.2 mM MgCl2, 120 mM NaCl, 15 mM Tris; pH 7.5; binding assay buffer), homogenized by polytron for ca. 20 sec on ice and centrifuged for 60 min at 4° C. (50000 g; Sorvall, rotor: SM24=20000 rpm). The cell pellets were resuspended in Krebs-tris buffer and homogenized by polytron for ca. 15 sec on ice. Protein was measured (Bradford method, Bio-Rad) and aliquots of 1 mL were prepared and stored at −80° C.
Assays were incubated to equilibrium for 1 hour at 4° C. and harvested onto GF/C uni-filters (Packard) by filtration using a Packard harvester and washing with ice-cold wash buffer (50 mM Tris; pH 7.5). After drying, filter-retained radioactivity was detected by liquid scintillation counting. Ki values were calculated using Excel-Fit (Microsoft) and are the means of two determinations.

[2] = target: T1, h-GABA-A α5β3γ2; test: Two-electrode voltage clamp electrophysiology in Xenopus oocytes expressing GABAA receptors, modulation of GABA EC20 current; format: cell-based; settings: Xenopus oocytes; for Efficacy (GABA) %: % modulation of GABA EC20 = 100*(Fold increase−1); for Fold increase h-GABA-A α5β3γ2 oocyte: GABA EC20, test compound at approx. 30 fold its Ki
Experimental: Xenopus laevis oocytes at maturation stages V-VI were used for the expression of cloned mRNA encoding GABAA receptor subunits. Oocytes ready for RNA micro-injection were bought from Ecocyte, Castrop-Rauxel, Germany and stored in modified Barth's medium (composition in mM: NaCl 88, KCl 1, NaHCO32.4, HEPES 10, MgSO4 0.82, CaNO3 0.33, CaCl2) 0.33, pH=7.5) at 20° C. until the experiment.
Oocytes were plated in 96-well plates to be used in an automated instrument (Robo-ocyte, MultiChannelSystems, Reutlingen, Germany) for microinjection and electrophysiological recordings. Approximately 50 nl of an aqueous solution containing the RNA transcripts for the subunits of the desired GABAA receptor was injected into each oocyte. RNA concentrations ranged between 0.3 and 16 ng/μl/subunit and were adjusted in pilot experiments to obtain GABA responses of a suitable size and a maximal effect of the reference modulator, Beta-CCM (β-CCM), a betacarboline negative allosteric modulator (NAM) at the GABAA receptor benzodiazepine (BZD) binding site or Midazolam, a benzodiazepine positive allosteric modulator (PAM) at the GABAA receptor benzodiazepine (BZD) binding site. The concentration of the γ2 subunit encoding RNA usually was 5-to 10-fold higher than the RNAs encoding the other subunits. Oocytes were kept in modified Barth's medium (composition in mM: NaCl 88, KCl 1, NaHCO3 4, HEPES 10, MgSO4 0.82, CaNO3 0.33, CaCl2 0.33, pH=7.5) at 20° C. until the experiment.
Electrophysiological experiments were performed on days 3 to 5 after the micro-injection of mRNA. During the experiment the oocytes were constantly superfused by a solution containing (in mM) NaCl 90, KCl 1, HEPES 5, MgCl2 1, CaCl2 1 (pH 7.4). Oocytes were impaled by two glass microelectrodes (resistance: 0.4 MΩ) which were filled with a solution containing KCl 1M+K-acetate 1.5 M and voltage-clamped to −80 mV. The recordings were performed at room temperature using the Roboocyte two-electrode voltage clamp system (Multichannelsystem). After an initial equilibration period of 1.5 min GABA was added for 1.5 min at a concentration evoking approximately 20% of a maximal current response (EC20). After another rest interval of 2.5 min GABA was again added evoking a response of similar amplitude and shape. […] Current traces were recorded at a digitization rate of 10 Hz during and shortly before and after the GABA application.
Each compound and concentration was tested on at least 3 oocytes.
For the analysis, the digitized current traces of the first and second GABA response were superimposed and, if necessary, rescaled to equal maximal amplitudes. The ratio between the two responses during the time interval of test compound application was calculated point by point. The extremum of the resulting “ratio trace” was taken as the efficacy (“Fold increase”) of the compound expressed as “% modulation of GABA EC20” (100*(Fold increase−1)).

Structure (SMILES)	Ki [1] [nM]	Efficacy (GABA) % [2] [%]	Fold increase h-GABA-A α5β3γ2 oocyte [2]
Cc1ccc(-c2noc(C)c2COc2ccc(C(=O)N[C@@H]3CCCC[C@H]3O)nn2)cn1 [Example 25, N-((1R,2R)-2-hydroxycyclohexyl)-6-((5-methyl-3-(6-methylpyridin-3-yl)isoxazol-4-yl)methoxy)pyridazine-3-carboxamide]	9.4	59	1.59
COC1CN(C(=O)c2ccc(OCc3c(-c4ccc(C)nc4)noc3C)nn2)C1 [Example 55, (3-methoxyazetidin-1-yl)(6-((5-methyl-3-(6-methylpyridin-3-yl)isoxazol-4-yl)methoxy)pyridazin-3-yl)methanone]	8.6	57	1.57
COc1ccc(-c2noc(C)c2COc2ccc(C(=O)N3CCS(=O)(=O)CC3)cn2)cn1 [Example 140, (1,1-dioxidothiomorpholino)(6-((3-(6-methoxypyridin-3-yl)-5-methylisoxazol-4-yl)methoxy)pyridin-3-yl)methanone]	56	13	1.13
Cc1ccc(-c2noc(C)c2COc2ccc(C(=O)NCC3(C)COC3)nn2)cn1 [Example 49, 6-((5-methyl-3-(6-methylpyridin-3-yl)isoxazol-4-yl)methoxy)-N-((3-methyloxetan-3-yl)methyl)pyridazine-3-carboxamide]	13.6	70	1.7
Cc1ccc(-c2noc(C3CC3)c2COc2ccc(C(=O)NC3(C)COC3)nn2)cn1 [Example 180]	32.6	173	2.73
Cc1ccc(-c2noc(C)c2COc2cnc(C(=O)NC3CCOCC3)cn2)cn1 [Example 15, 5-((5-methyl-3-(6-methylpyridin-3-yl)isoxazol-4-yl)methoxy)-N-(tetrahydropyran-4-yl)pyrazine-2-carboxamide]	19.8	55	1.55
Cc1ccc(-c2noc(C)c2COc2ccc(C(=O)N[C@]3(C)CCOC3)nn2)cn1 (single isomer, unassigned) [Example 82]	12.4	101	2.01
CCC[C@@H](CO)NC(=O)c1ccc(OCc2c(-c3ccc(C)nc3)noc2C)nn1 [Example 7, (S)—N-(1-hydroxypentan-2-yl)-6-((5-methyl-3-(6-methylpyridin-3-yl)isoxazol-4-yl)methoxy)pyridazine-3-carboxamide]	25.6	102	2.02
Cc1ccc(-c2noc(C)c2COc2cnc(C(=O)N3CC4(C3)CS(=O)(=O)C4)cn2)cn1 [Example 113, (2,2-dioxido-2-thia-6-azaspiro[3.3]heptan-6-yl)(5-((5-methyl-3-(6-methylpyridin-3-yl)isoxazol-4-yl)methoxy)pyrazin-2-yl)methanone]	33.8	28	1.28
CCc1onc(-c2ccc(C)nc2)c1COc1ccc(C(=O)NC2CCOCC2)nn1 [Example 121, 6-((5-ethyl-3-(6-methylpyridin-3-yl)isoxazol-4-yl)methoxy)-N-(tetrahydropyran-4-yl)pyridazine-3-carboxamide]	40.3	109	2.09
Cc1ccc(-c2noc(C)c2COc2ccc(C(=O)N[C@H]3CCCC[C@@H]3O)cn2)cn1 [Example 135, N-((1S,2S)-2-hydroxycyclohexyl)-6-((5-methyl-3-(6-methylpyridin-3-yl)isoxazol-4-yl)methoxy)pyridine-3-carboxamide]	30.4	92	1.92
Cc1ccc(-c2noc(C3CC3)c2COc2ccc(C(=O)NC3CCOCC3)nn2)nn1 [Example 165, 6-((5-cyclopropyl-3-(6-methylpyridazin-3-yl)isoxazol-4-yl)methoxy)-N-(tetrahydropyran-4-yl)pyridazine-3-carboxamide]	2.6	174	2.74

More lines, in order of falling Ki [1], values ahead:

Ki [1] [nM]	Efficacy (GABA) % [2] [%]	Fold increase h-GABA-A α5β3γ2 oocyte [2]	Structure (SMILES)
22.7	101	2.01	Cc1ccc(-c2noc(C)c2COc2cnc(C(=O)N[C@H]3CC[C@](C)(O)CC3)cn2)cn1 [Example 105, N-(trans-4-hydroxy-4-methylcyclohexyl)-5-((5-methyl-3-(6-methylpyridin-3-yl)isoxazol-4-yl)methoxy)pyrazine-2-carboxamide]
15.5	65	1.65	Cc1ccc(-c2noc(C)c2COc2ccc(C(=O)NC3(C)CCSCC3)nn2)cn1 [Example 110, 6-((5-methyl-3-(6-methylpyridin-3-yl)isoxazol-4-yl)methoxy)-N-(4-methyltetrahydrothiopyran-4-yl)pyridazine-3-carboxamide]
12.7	63	1.63	CCO[C@@H]1CC[C@@H](NC(=O)c2ccc(OCc3c(-c4ccc(C)nc4)noc3C)nn2)C1 [Example 190, N-((1R,3R)-3-ethoxycyclopentyl)-6-((5-methyl-3-(6-methylpyridin-3-yl)isoxazol-4-yl)methoxy)pyridazine-3-carboxamide]
11.8	59	1.59	Cc1ccc(-c2noc(C)c2COc2ccc(C(=O)N3CC(C)(F)C3)nn2)cn1 [Example 67, (3-fluoro-3-methylazetidin-1-yl)(6-((5-methyl-3-(6-methylpyridin-3-yl)isoxazol-4-yl)methoxy)pyridazin-3-yl)methanone]
10	92	1.92	Cc1ccc(-c2noc(C)c2COc2cnc(C(=O)NC3CCS(=O)(=O)C3)cn2)cn1 (stereo not drawn) [Example 94, N-(1,1-dioxothiolan-3-yl)-5-((5-methyl-3-(6-methylpyridin-3-yl)-1,2-oxazol-4-yl)methoxy)pyrazine-2-carboxamide]
8	52	1.52	Cc1ccc(-c2noc(C)c2COc2ccc(C(=O)N[C@@H]3CCOC[C@H]3O)nn2)cn1 [Example 28, N-((3S,4R)-3-hydroxytetrahydropyran-4-yl)-6-((5-methyl-3-(6-methylpyridin-3-yl)isoxazol-4-yl)methoxy)pyridazine-3-carboxamide]

Reference: patent publication US20240279218A1 (Hoffmann-La Roche Inc., priority 2016, published 2024)
